Assay: CO release rates from free CORM and OCORS systems
Assay type: physicochemical
Protocol: This example illustrates the influence of the wall thickness of the silicone membrane on the release rate of the therapeutic gas.
The trigger compounds FeCl3 and Na2SO3 were used in aqueous solution and in molar excess amounts relative to the CORM.
In Table 1, Cmax describes the highest value measured for the therapeutic gas concentration. Tmax is the time, at which this value was measured. 090% describes 90% of Cmax, and T90% is the time point, at which 90% of Cmax were released. For the free metal carbonyl, a different release vessel was used than for the CO releasing systems, and therefore, the absolute values for Cmax differ.

[1] = trigger in aqueous solution in molar excess

SMILES: [C-]#[N+]CC(=O)O.[C-]#[N+]CC(=O)O.[C-]#[N+]CC(=O)O.[C-]#[O+].[C-]#[O+].[C-]#[O+].[Mo] [Entry 1, Mo(CO)3(CNCH2CO2H)3]
- C90% (90% of Cmax) (free carbonyl measured in a different release vessel): 576.7 ppm
- T90% (time point at which 90% of Cmax were released) [1]: 17 min
- Tmax (time at which Cmax was measured) [1]: 44 min
- Cmax (highest value measured for the therapeutic gas concentration) (trigger in aqueous solution in molar excess, free carbonyl measured in a different release vessel than the OCORS systems): 640.8 ppm

Source: US12569448B2, “Membrane-based two component therapeutic gas release system for oral administration” (Julius-Maximilians-Universitaet Wuerzburg, priority 2019, dated 2026)
